The text below walks through data of patent US3960837A, “Polyamine compounds and methods for their production” (Parke, Davis & Company, priority 1974, dated 1976).

What all share (format): cell-based
For test [1], the system named is Enterobacter cloacae. The test is described as follows: in vitro antibacterial screening, minimal inhibitory concentration, Enterobacter cloacae. As to conditions: Enterobacter cloacae (1 strain); Tryptic Soy broth; free base equivalent. The source says: (§1) Aminotrideoxybutirosin A and its acid-addition salts posses antibacterial activity. They show activity when tested by well-recognized in vitro antibacterial screening procedures. […] Where more than a single strain of test organism is indicated an average or approximate minimal inhibitory concentration is given.

In test [2] the test system is Klebsiella pneumoniae. The test is described as follows: in vitro antibacterial screening, minimal inhibitory concentration, Klebsiella pneumoniae. As to conditions: Klebsiella pneumoniae (1 strain); Tryptic Soy broth; free base equivalent.
Source text: as §1

Test [3] relates to Serratia marcescens. The test is described as follows: in vitro antibacterial screening, minimal inhibitory concentration, Serratia marcescens. Particulars: Serratia marcescens (1 strain); Tryptic Soy broth; free base equivalent.
Source text: as §1

Test [4] concerns Escherichia coli. The test is described as follows: in vitro antibacterial screening, minimal inhibitory concentration, Escherichia coli. As to conditions: Escherichia coli (1 strain); Tryptic Soy broth; free base equivalent.
Source text: as §1

For test [5], the system named is Pseudomonas aeruginosa Aquilar. The test is described as follows: in vitro antibacterial screening, minimal inhibitory concentration, Pseudomonas aeruginosa Aquilar (butirosin resistant strain). Particulars: Pseudomonas aeruginosa Aquilar (1 strain), Tryptic Soy broth, free base equivalent.
Source text: as §1
(§2) *Butirosin resistant strain

In test [6] the test system is Staphylococcus aureus. The test is described as follows: in vitro antibacterial screening, minimal inhibitory concentration, Staphylococcus aureus (butirosin resistant strain). As to conditions: Staphylococcus aureus (1 strain), Tryptic Soy broth, free base equivalent.
Source text: as §1, §2

In test [7] the test system is Pseudomonas aeruginosa. The test is described as follows: in vitro antibacterial screening, minimal inhibitory concentration, Pseudomonas aeruginosa. As to conditions: Pseudomonas aeruginosa (6 strains), average or approximate; Tryptic Soy broth; free base equivalent.
Source text: as §1

For the molecule `NCC[C@H](O)C(=O)N[C@@H]1C[C@H](N)[C@@H](O[C@H]2O[C@H](CN)CC[C@H]2N)[C@H](O[C@@H]2O[C@H](CN)[C@H](O)[C@H]2O)[C@H]1O` [Aminotrideoxybutirosin A, O-2,6-Diamino-2,3,4,6-tetradeoxy-α-D-erythro-hexopyranosyl-(1→4)-O-[5-amino-5-deoxy-β-D-xylofuranosyl-(1→5)]-N^1-[(S)-4-amino-2-hydroxy-1-oxobutyl]-2-deoxystreptamine], the MIC was determined as 6.3 µg/mL in test [1]; 6.3 µg/mL in test [2]; 12.5 µg/mL in test [3]; 12.5 µg/mL in test [4]; 6.3 µg/mL in test [5]; 3.1 µg/mL in test [6]. Further, in test [7], the minimal inhibitory concentration (MIC) came out at 3.6 µg/mL.
For Butirosin, the “Minimal Inhibitory Concentration” value was 6.3 micrograms/ml in test [1]; 6.3 micrograms/ml in test [2]; 25 micrograms/ml in test [3]; greater than 200 micrograms/ml in test [4]; greater than 200 micrograms/ml in test [5]; 50 micrograms/ml in test [6]. The “Minimal Inhibitory Concentration” value in test [7] came to 19.8 micrograms/ml.
